Reference: ChEMBL document CHEMBL5316327, “Design and Synthesis of Orally Active Quinolyl Pyrazinamides as Sigma 2 Receptor Ligands for the Treatment of Pancreatic Cancer” (J Med Chem, 2023)
pIC50, pKi: −log10 of the molar value. Activity calls are given as the source filed them. The rule behind the calls is not given here.

Legend:
HCT-116 [1] = assay: Induction of apoptosis in human HCT-116 cells assessed as late apoptotic cells at 10.0 uM measured after 48 hrs by Annexin V-Alexa Fluor 488/propidium iodide staining based flow cytometry (reference value: 8.48%); type: functional
HCT-116 [2] = assay: Induction of apoptosis in human HCT-116 cells assessed as necrotic cells at 10.0 uM measured after 48 hrs by Annexin V-Alexa Fluor 488/propidium iodide staining based flow cytometry (reference value: 9.06%); type: functional
[3] = Cmax in CD-1 mouse plasma at 20 mg/kg, po; type: ADME, organism-based; design: dose 20 mg/kg, route po
MIA PaCa-2 [4] = assay: Induction of apoptosis in human MIA PaCa-2 cells assessed as viable cells at […] measured after 48 hrs by Annexin V-Alexa Fluor 488/propidium iodide staining based flow cytometry (reference value: 82.23%); type: functional; conditions: dose 2.5 µM, read-out: Activity
HCT-116 [5] = assay: Induction of cell cycle arrest in human HCT-116 cells assessed as accumulation of cells in G2/M phase at 10 uM measured after 24 hrs by propidium iodide staining-based flow cytometric analysis (reference value: 10%); type: functional
MIA PaCa-2 [6] = assay: Induction of cell cycle arrest in human MIA PaCa-2 cells assessed as accumulation of cells in S phase at 1 uM measured after 24 hrs by propidium iodide staining-based flow cytometric analysis (reference value: 31%); type: functional
MIA PaCa-2 [7] = assay: Additive cytotoxicity in human MIA PaCa-2 cells at upto 1 uM measured after 24 hrs in presence of roluperidone; type: functional, cell-based
[8] = molecular target: 5-hydroxytryptamine receptor 2A (Homo sapiens, UniProt P28223); assay: Binding affinity to 5-HT2A receptor (unknown origin) assessed as inhibition constant
Chain of 5-hydroxytryptamine receptor 2A (P28223 whole entry): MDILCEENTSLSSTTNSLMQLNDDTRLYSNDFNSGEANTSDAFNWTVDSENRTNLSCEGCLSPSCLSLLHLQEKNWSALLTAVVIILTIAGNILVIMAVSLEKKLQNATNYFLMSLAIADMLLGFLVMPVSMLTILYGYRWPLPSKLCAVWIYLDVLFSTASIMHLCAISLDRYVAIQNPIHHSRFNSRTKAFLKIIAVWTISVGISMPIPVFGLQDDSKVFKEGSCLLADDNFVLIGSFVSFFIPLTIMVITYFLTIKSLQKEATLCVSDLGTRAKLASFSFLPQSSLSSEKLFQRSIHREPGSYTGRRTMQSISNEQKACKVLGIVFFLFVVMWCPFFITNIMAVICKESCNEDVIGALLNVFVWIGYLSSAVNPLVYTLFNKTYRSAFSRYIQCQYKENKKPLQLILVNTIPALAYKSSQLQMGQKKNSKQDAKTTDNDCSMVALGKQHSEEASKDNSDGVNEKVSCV

Histamine H3 receptor = Histamine H3 receptor (Homo sapiens, UniProt Q9Y5N1); assay: Binding affinity to histamine H3 receptor (unknown origin) assessed as inhibition constant
Chain of Histamine H3 receptor (Q9Y5N1 whole entry): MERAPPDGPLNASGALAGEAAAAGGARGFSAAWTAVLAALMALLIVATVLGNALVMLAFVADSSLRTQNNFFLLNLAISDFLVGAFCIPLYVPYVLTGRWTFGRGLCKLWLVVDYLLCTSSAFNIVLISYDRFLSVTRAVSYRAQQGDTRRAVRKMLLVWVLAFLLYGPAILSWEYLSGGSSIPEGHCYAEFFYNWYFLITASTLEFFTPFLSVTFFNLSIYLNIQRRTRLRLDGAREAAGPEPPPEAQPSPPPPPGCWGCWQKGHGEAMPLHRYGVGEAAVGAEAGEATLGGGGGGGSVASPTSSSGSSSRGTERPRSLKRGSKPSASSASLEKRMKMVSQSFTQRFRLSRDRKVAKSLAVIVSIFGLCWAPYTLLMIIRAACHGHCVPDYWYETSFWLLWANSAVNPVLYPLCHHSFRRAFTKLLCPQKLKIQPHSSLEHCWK

HCT-116 [9] = assay: Induction of apoptosis in human HCT-116 cells assessed as viable cells at 5.0 uM measured after 48 hrs by Annexin V-Alexa Fluor 488/propidium iodide staining based flow cytometry (reference value: 79.69%); type: functional; conditions: read-out: Activity
[10] = molecular target: 5-hydroxytryptamine receptor 2B (Homo sapiens, UniProt P41595); assay: Binding affinity to 5-HT2B receptor (unknown origin) assessed as inhibition constant
Chain of 5-hydroxytryptamine receptor 2B (P41595 whole entry): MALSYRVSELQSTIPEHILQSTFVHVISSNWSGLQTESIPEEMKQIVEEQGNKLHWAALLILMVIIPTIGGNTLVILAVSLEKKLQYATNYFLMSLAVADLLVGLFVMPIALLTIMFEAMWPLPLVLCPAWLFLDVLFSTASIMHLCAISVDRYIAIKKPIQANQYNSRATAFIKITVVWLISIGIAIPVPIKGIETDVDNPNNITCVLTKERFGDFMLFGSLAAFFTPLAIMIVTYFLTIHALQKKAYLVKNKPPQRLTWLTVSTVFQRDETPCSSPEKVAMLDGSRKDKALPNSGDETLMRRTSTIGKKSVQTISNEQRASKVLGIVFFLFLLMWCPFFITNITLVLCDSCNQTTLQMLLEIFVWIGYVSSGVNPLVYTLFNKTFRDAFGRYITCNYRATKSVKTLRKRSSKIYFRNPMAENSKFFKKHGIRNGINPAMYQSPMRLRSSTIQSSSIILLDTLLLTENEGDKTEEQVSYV

Panc02 [11] = assay: Antitumor activity against mouse Panc02 cells xenografted in C57BL/6 mouse model assessed as delayed tumor growth at 30 mg/kg, po administered daily for 32 days in presence of copper sulfate by caliper method; type: functional, organism-based; conditions: time 32.0 day
MIA PaCa-2 [12] = assay: Induction of apoptosis in human MIA PaCa-2 cells assessed as early apoptotic cells at 5.0 uM measured after 48 hrs by Annexin V-Alexa Fluor 488/propidium iodide staining based flow cytometry (reference value: 4.11%); type: functional
HCT-116 [13] = assay: Induction of apoptosis in human HCT-116 cells assessed as early apoptotic cells at […] measured after 48 hrs by Annexin V-Alexa Fluor 488/propidium iodide staining based flow cytometry (reference value: 2.77%); type: functional; conditions: dose 2.5 µM
Histamine H2 receptor = Histamine H2 receptor (Homo sapiens, UniProt P25021); assay: Binding affinity to histamine H2 receptor (unknown origin) assessed as inhibition constant
Chain of Histamine H2 receptor (P25021 whole entry): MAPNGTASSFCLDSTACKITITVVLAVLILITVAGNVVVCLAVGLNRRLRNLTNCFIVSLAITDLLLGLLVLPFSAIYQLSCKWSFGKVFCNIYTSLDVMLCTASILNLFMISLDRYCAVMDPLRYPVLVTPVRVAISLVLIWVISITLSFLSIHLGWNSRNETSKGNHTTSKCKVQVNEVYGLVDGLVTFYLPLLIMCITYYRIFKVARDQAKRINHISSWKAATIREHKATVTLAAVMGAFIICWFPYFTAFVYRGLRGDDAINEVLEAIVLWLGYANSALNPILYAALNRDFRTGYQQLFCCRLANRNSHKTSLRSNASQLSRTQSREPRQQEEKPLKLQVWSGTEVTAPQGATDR

[14] = Oral bioavailability in CD-1 mouse plasma at 20 mg/kg; type: ADME, organism-based; conditions: in vivo
MIA PaCa-2 [15] = assay: Upregulation of LC3-B expression in human MIA-PaCa-2 cells measured after 72 hrs; type: functional, cell-based; conditions: dose 1-5 µM
MIA PaCa-2 [16] = assay: Induction of cell cycle arrest in human MIA PaCa-2 cells assessed as accumulation of cells in G2/M phase at […] measured after 24 hrs by propidium iodide staining-based flow cytometric analysis (reference value: 16%); type: functional; conditions: dose 2.5 µM
[17] = Half life in CD-1 mouse plasma at 10 mg/kg, iv; type: ADME, organism-based
D(3) dopamine receptor = D(3) dopamine receptor (Homo sapiens, UniProt P35462); assay: Binding affinity to dopamine D3 receptor (unknown origin) assessed as inhibition constant
Chain of D(3) dopamine receptor (P35462 whole entry): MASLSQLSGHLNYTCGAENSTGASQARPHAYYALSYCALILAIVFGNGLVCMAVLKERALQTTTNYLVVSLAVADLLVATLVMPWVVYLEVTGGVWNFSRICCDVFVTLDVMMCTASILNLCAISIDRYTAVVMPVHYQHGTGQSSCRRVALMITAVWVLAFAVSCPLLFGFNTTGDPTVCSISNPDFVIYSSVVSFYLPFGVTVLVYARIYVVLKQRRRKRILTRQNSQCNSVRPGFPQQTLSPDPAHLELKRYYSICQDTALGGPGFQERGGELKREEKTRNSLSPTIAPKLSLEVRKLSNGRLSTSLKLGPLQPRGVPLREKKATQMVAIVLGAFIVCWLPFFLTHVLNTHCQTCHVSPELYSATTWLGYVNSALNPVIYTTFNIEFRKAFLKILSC

[18] = Cytotoxicity against HPDE cells measured after 72 hrs by MTT assay; type: toxicity, cell-based; conditions: human
Panc02 [19] = assay: cells; conditions: Mus musculus, Panc02, 72 h
MIA PaCa-2 [20] = assay: Synergistic cytotoxicity against human MIA PaCa-2 cells at upto 1 uM measured after 7 days in presence of ammonium tetrathiomolybdate by crystal violet staining based analysis; type: functional, cell-based; conditions: time 7.0 day
HCT-116 [21] = assay: Induction of apoptosis in human HCT-116 cells assessed as early apoptotic cells at 1.0 uM measured after 48 hrs by Annexin V-Alexa Fluor 488/propidium iodide staining based flow cytometry (reference value: 2.77%); type: functional
MIA PaCa-2 [22] = assay: Synergistic cytotoxicity in human MIA PaCa-2 cells at upto 1 uM measured after 7 days in presence of vemurafenib by crystal violet staining based analysis; type: functional, cell-based; conditions: time 7.0 day
MIA PaCa-2 [23] = assay: Induction of cell cycle arrest in human MIA PaCa-2 cells assessed as accumulation of cells in G0/G1 phase at 5 uM measured after 24 hrs by propidium iodide staining-based flow cytometric analysis (reference value: 53%); type: functional
[24] = Clearance in CD-1 mouse plasma at 10 mg/kg, iv; type: ADME, organism-based
HCT-116 [25] = assay: Induction of cell cycle arrest in human HCT-116 cells assessed as accumulation of cells in G0/G1 phase at 10 uM measured after 24 hrs by propidium iodide staining-based flow cytometric analysis (reference value: 43%); type: functional
MIA PaCa-2 [26] = assay: Induction of apoptosis in human MIA PaCa-2 cells assessed as viable cells at 1.0 uM measured after 48 hrs by Annexin V-Alexa Fluor 488/propidium iodide staining based flow cytometry (reference value: 82.23%); type: functional; conditions: read-out: Activity
HCT-116 [27] = assay: Inhibition of colony formation in human HCT-116 cells at 0.04 to 30 uM pretreated with ammonium tetrathiomolybdate for 4 hrs followed by compound addition and measured after 6 days; type: functional, cell-based; conditions: dose 0.04-30 µM, time 6.0 day
MIA PaCa-2 [28] = assay: Induction of apoptosis in human MIA PaCa-2 cells assessed as necrotic cells at 5.0 uM measured after 48 hrs by Annexin V-Alexa Fluor 488/propidium iodide staining based flow cytometry (reference value: 7.03%); type: functional
MIA PaCa-2 [29] = assay: Inhibition of colony formation in human MIA PaCa-2 cells at 0.04 to 30 uM pretreated with ammonium tetrathiomolybdate for 4 hrs followed by compound addition and measured after 6 days; type: functional, cell-based; conditions: dose 0.04-30 µM, time 6.0 day
[30] = Volume of distribution at steady state in CD-1 mouse plasma at 10 mg/kg, iv; type: ADME, organism-based; conditions: read-out: Vdss
MIA PaCa-2 [31] = assay: Induction of autophagy in human MIA PaCa-2 cells assessed as upregulation of LC-3 level at 1 to 10 uM measured after 24 hrs; type: functional, cell-based; conditions: dose 1-10 µM
[32] = Half life in CD-1 mouse plasma at 20 mg/kg, po; type: ADME, organism-based
MIA PaCa-2 [33] = assay: Induction of apoptosis in human MIA PaCa-2 cells assessed as viable cells at 5.0 uM measured after 48 hrs by Annexin V-Alexa Fluor 488/propidium iodide staining based flow cytometry (reference value: 82.23%); type: functional; conditions: read-out: Activity
HCT-116 [34] = assay: Induction of apoptosis in human HCT-116 cells assessed as necrotic cells at 1.0 uM measured after 48 hrs by Annexin V-Alexa Fluor 488/propidium iodide staining based flow cytometry (reference value: 9.06%); type: functional

`CCN(CC)CCCC(C)Nc1cnc(C(=O)Nc2ccc(Cl)c3cccnc23)cn1` (configuration not stated) showed an Activity (HCT-116 [1]) of 47.98%, an Activity (HCT-116 [2]) of 2.37% and a Cmax [3] of 254 ng/mL. The viability at […] (MIA PaCa-2 [4]) was 54.5%, the Activity (HCT-116 [5]) was 22% and the Activity (MIA PaCa-2 [6]) was 40%. For the same molecule, the Activity (MIA PaCa-2 [7]) was “Active”, the pKi [8] was 5.90 and the pKi (Histamine H3 receptor) was 5.93. For the same molecule, the viability at 5 µM (HCT-116 [9]) was 64.1%, the pKi [10] was 6.37 and the Activity (Panc02 [11]) was “Active”. It also gave an Activity (MIA PaCa-2 [12]) of 22.26%, an Activity (HCT-116 [13]) of 8.77% and a pKi (Histamine H2 receptor) of 4.04. For the same molecule, the F [14] was 60%, the Activity (MIA PaCa-2 [15]) was “Dose-Dependent Effect” and the Activity (MIA PaCa-2 [16]) was 16%. It also gave a half-life [17] of 4.7 h, a pKi (D(3) dopamine receptor) of 6.20 and an IC50 at 72 h [18] of 300 nM. For the same molecule, the pIC50 (Panc02 [19]) was 5.43, the Activity (MIA PaCa-2 [20]) was “inactive” and the Activity (HCT-116 [21]) was 2.38%. The Activity (MIA PaCa-2 [22]) was “inactive”, the Activity (MIA PaCa-2 [23]) was 61% and the clearance [24] was 62.2 mL/min/kg. The Activity (HCT-116 [25]) was 57%, the viability at 1 µM (MIA PaCa-2 [26]) was 54.6% and the inhibition (HCT-116 [27]) was “inactive”. For the same molecule, the Activity (MIA PaCa-2 [28]) was 5.32%, the inhibition (MIA PaCa-2 [29]) was “inactive” and the Vd [30] was 21.4 L/kg. For the same molecule, the Activity (MIA PaCa-2 [31]) was “Active”, the half-life [32] was 6.1 h and the viability at 5 µM (MIA PaCa-2 [33]) was 32.4%. It also gave an Activity (HCT-116 [34]) of 9.72%.
